According to PMC6934184, “Selective DNA-PKcs inhibition extends the therapeutic index of localized radiotherapy and chemotherapy” (The Journal of Clinical Investigation, 2019):

Target: T1, CAMKK1 (CAMKKA) (Homo sapiens, UniProt Q8N5S9)
T1 construct: purchased Thermo Fisher Scientific (Life Technologies) SelectScreen
Assay: SelectScreen LanthaScreen
Type: binding
Details: read-out: % displacement
Method in brief: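 Percent values come from Thermo SelectScreen profiling of NU5455, combining activity and binding assays. CSF1R was run in Z'LYTE format at Km app ATP, and CAMK1 in Adapta format with ATP listed at 10.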

T1 sequence (Q8N5S9 whole entry): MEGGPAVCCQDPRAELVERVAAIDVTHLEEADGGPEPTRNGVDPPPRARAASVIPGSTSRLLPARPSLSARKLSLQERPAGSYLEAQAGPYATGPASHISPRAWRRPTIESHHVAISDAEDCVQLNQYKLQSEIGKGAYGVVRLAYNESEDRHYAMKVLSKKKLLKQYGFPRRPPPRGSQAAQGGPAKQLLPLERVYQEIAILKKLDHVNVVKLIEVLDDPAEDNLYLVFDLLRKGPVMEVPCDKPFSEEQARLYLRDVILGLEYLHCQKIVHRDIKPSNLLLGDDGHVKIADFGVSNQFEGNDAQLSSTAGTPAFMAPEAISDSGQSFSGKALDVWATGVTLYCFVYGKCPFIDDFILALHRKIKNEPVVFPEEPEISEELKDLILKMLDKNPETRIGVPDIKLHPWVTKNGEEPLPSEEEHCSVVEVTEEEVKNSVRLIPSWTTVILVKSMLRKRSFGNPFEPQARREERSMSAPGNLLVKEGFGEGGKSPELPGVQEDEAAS

CN(C(=O)CN1CCOCC1)c1ccc2sc3c(-c4cccc5c(=O)cc(N6CC7CCC(C6)O7)oc45)cccc3c2c1 [NU5455]
inhibition at 1 µM: -3.8%
